Seven compounds from PubChem BioAssay (NCI) can be followed below.

Assay in all cases: NCI anticancer screen, dose series, 48 h
For experiment [1], the system named is UACC-257 melanoma.
In experiment [2] the test system is NCI-H522 lung.
Experiment [3] has as its system SW-620 colon.
Experiment [4] has as its system T-47D breast.
The test system of experiment [5] is DU-145 prostate.
For experiment [6], the system named is HCC-2998 colon.
Experiment [7] has as its system NCI-H460 lung.
For experiment [8], the system named is OVCAR-8 ovarian.
The subject of experiment [9] is A498 renal.
Experiment [10] relates to SNB-75 CNS.

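Growth conditions: 96-well plates. Treatment: test compound, 48 hours, 5 concentrations. Analysis: linear interpolation between bracketing concentrations; unreached endpoints set to highest concentration. GI50 = concentration required for 50% inhibition of growth. TGI: concentration producing complete growth inhibition.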

With `CCOc1c(Br)cc(C2C(C(=O)OC)=CN(C)C=C2C(=O)OC)cc1OC`, the GI50 was 72.3 µM in [1]; 39.7 µM in experiment [2]; 38.6 µM in experiment [3]; 45.9 µM in experiment [4]; over 100 µM in [5]; over 100 µM in [6]. Besides, the GI50 in experiment [7] is 58.1 µM; in experiment [8], 68.1 µM; in experiment [9], 16.5 µM; in experiment [10], 26.1 µM. The TGI in [1], in experiment [2], in experiment [3], in [4], in experiment [5] and in experiment [6] was over 100 µM each time. The TGI is over 100 µM in experiment [7], over 100 µM in experiment [8], 98.2 µM in [9] and over 100 µM in experiment [10].
Consider `Cn1cc(-c2nc(-c3c[nH]c4ncccc34)cs2)c2cc(F)ccc21`, for which the GI50 was 2.72 µM in [1]; 2.7 µM in [2]; 2.67 µM in [3]; 0.0443 µM in experiment [4]; 3.97 µM in experiment [5]; 1.98 µM in experiment [6]. For the same compound, the GI50 is 1.89 µM in experiment [7], 2.96 µM in [8], 2.03 µM in experiment [9] and 2.78 µM in experiment [10]. The TGI was determined as 12.3 µM in experiment [1]; 9.89 µM in experiment [2]; 9.73 µM in [3]; 4.43 µM in experiment [4]; 15.2 µM in [5]; 7.59 µM in experiment [6]. In addition, the TGI in experiment [7] was 6.72 µM; in experiment [8], over 25.3 µM; in experiment [9], 7.48 µM; in experiment [10], 10.1 µM.
Take `Cn1cc(C2=C(c3cccc4ccccc34)C(=O)NC2=O)c2ccccc21`: the GI50 in experiment [1] is 12.1 µM; in experiment [2], 6.53 µM; in experiment [3] it was 9.45 µM; in [4], 6.32 µM; in [5], 12.3 µM; in experiment [6], 12.2 µM. Besides, the GI50 was 8.2 µM in experiment [7], 7.17 µM in experiment [8], 6.76 µM in experiment [9] and 3.73 µM in [10]. In addition, the TGI in experiment [1] was over 25 µM; in experiment [2] it was 19.1 µM; in experiment [3] it was over 25 µM; in experiment [4] it was 24.5 µM; in [5], over 25 µM; in experiment [6], over 25 µM. The TGI in [7] is over 25 µM; in [8], 19 µM; in experiment [9], 22.5 µM; in experiment [10], over 25 µM.
As for `Cc1cc(N2CCCCC2)nc(N(CCCNc2ccnc3cc(Cl)ccc23)Cc2ccco2)n1`, the GI50 in experiment [1] is 2.35 µM; in experiment [2] it was 2.63 µM; in experiment [3], 1.61 µM; in experiment [4], 1.77 µM; in experiment [5], 3.14 µM; in experiment [6], 1.97 µM. Besides, the GI50 in [7] is 1.8 µM; in experiment [8] it was 2.24 µM; in experiment [9] it was 2.66 µM; in experiment [10], 3.36 µM. Also, the TGI stood at 5.21 µM in experiment [1]; 7.69 µM in experiment [2]; 4.37 µM in experiment [3]; 4.44 µM in [4]; 12.9 µM in [5]; 4.39 µM in experiment [6]. For the same compound, the TGI turned out to be 4.23 µM in [7], 5.18 µM in experiment [8], 9.39 µM in experiment [9] and 16.8 µM in experiment [10].
`COc1cccc(C2c3cc4c(cc3OC(C)(O)C2C)OCO4)c1O` (stereo not given): the TGI in experiment [1] is 47.1 µM; in [2], 5.6 µM; in [3] it was over 100 µM; in [4], 13.1 µM; in experiment [5], 53.9 µM; in experiment [6] it was 24.1 µM. Besides, the TGI in experiment [7] was found to be 30.6 µM; in experiment [8], 40.9 µM; in experiment [9], 18.8 µM; in [10], 30.8 µM.
In the case of `Cn1nccc1Nc1nccc(-c2cc3c(s2)C(C)(C)N(CCN2CCOCC2)C3=O)n1`, the GI50 is 0.301 µM in experiment [1]; 14.9 µM in experiment [2]; 1.22 µM in experiment [3]; 17.4 µM in experiment [4]; 25.8 µM in experiment [5]; 0.602 µM in experiment [6]. Moreover, the GI50 in experiment [7] is 21.4 µM; in experiment [8] it was 24.3 µM; in experiment [9], 0.659 µM; in [10], 15.9 µM. For the same compound, the TGI in [1] is over 100 µM; in experiment [2], over 100 µM; in experiment [3] it was over 100 µM; in experiment [4] it was over 77.7 µM; in [5], over 100 µM; in [6], over 100 µM. In addition, the TGI was over 100 µM in [7], over 100 µM in [8], 5.99 µM in experiment [9] and over 100 µM in experiment [10].
Take `CN(C)c1ccc(N2Cc3ccccc3OC3=C2C(=O)c2c(O)ccc(O)c2C3=O)cn1`: the GI50 in [1] is 0.311 µM; in [2] it was 0.0535 µM; in experiment [3], 0.178 µM; in experiment [4], 0.258 µM; in experiment [5], 0.223 µM; in experiment [6], 1.18 µM. The GI50 in experiment [7] is 1.28 µM; in [8], 0.268 µM; in [9], 2.15 µM; in [10] it was 0.769 µM. Moreover, the TGI was determined as 1.14 µM in [1]; 0.217 µM in experiment [2]; 0.586 µM in experiment [3]; 1.27 µM in experiment [4]; 0.51 µM in experiment [5]; 2.58 µM in experiment [6]. Also, the TGI in experiment [7] came out at 3.67 µM; in experiment [8], 1.26 µM; in experiment [9] it was 5.8 µM; in experiment [10], 6.93 µM.
